From US11541055B2, “Inhibitors of human immunodeficiency virus replication” (ViiV Healthcare UK (No. 5) LIMITED, priority 2018, dated 2023)
pEC50: −log10 of the molar value.

Assays:
[1] = Compound cytotoxicity, XTT-based colorimetric assay; type: cell-based; settings: human; uninfected MT2 cells, day 4, XTT
Method in brief: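 Run under the antiviral-assay protocol but without virus. Viability was read on day 4 and CC50 values were derived from the readout.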

[2] = test system: recombinant NL4-3 virus (Renilla luciferase) in MT-2 cells; assay: HIV cell culture assay (antiviral activity, luciferase readout); type: cell-based; settings: Renilla, NL43
Method in brief: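 Antiviral EC50 was derived via the median effect equation from luciferase signal. The signal came from MT-2 cultures infected for 4–5 days with a nef-deleted, Renilla luciferase-expressing NL4-3 reporter virus (made in 293T cells) in the presence of compound dilutions.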

SMILES | CC50 at 4 days [1] [nM] | pEC50 [2]
CS(=O)(=O)Nc1nn(CC(F)F)c2c(-n3c([C@H](Cc4cc(F)cc(F)c4)NC(=O)Cn4nc(C(F)F)c5c4C(F)(F)[C@@H]4C[C@H]54)nc4cc(-c5ncccc5S(C)(=O)=O)ccc4c3=O)ccc(Cl)c12 (atropisomer, axis not shown) [Example 136, N-[(1S)-1-{3-[4-chloro-1-(2,2-difluoroethyl)-3-methanesulfonamido-1H-indazol-7-yl]-7-(3-methanesulfonylpyridin-2-yl)-4-oxo-3,4-dihydroquinazolin-2-yl}-2-(3,5-difluorophenyl)ethyl]-2-[(2S,4R)-9-(difluoromethyl)-5,5-difluoro-7,8-diazatricyclo[4.3.0.0^2,^4]nona-1(6),8-dien-7-yl]acetamide] | > 500 | 10.34
Cn1nc(NS(C)(=O)=O)c2c(Cl)ccc(-n3c([C@H](Cc4cc(F)cc(F)c4)NC(=O)Cn4nc(C(F)F)c5c4C(F)(F)[C@@H]4C[C@H]54)nc4cc(-c5ccnc(C(C)(C)C)n5)ccc4c3=O)c21 (atropisomer, axis not shown; (P)) [Example 72, N—((S)-1-(7-(2-(tert-butyl)pyrimidin-4-yl)-(3P)-3-(4-chloro-1-methyl-3-(methylsulfonamido)-1H-indazol-7-yl)-4-oxo-3,4-dihydroquinazolin-2-yl)-2-(3,5-difluorophenyl)ethyl)-2-((3bS,4aR)-3-(difluoromethyl)-5,5-difluoro-3b,4,4a,5-tetrahydro-1H-cyclopropa[3,4]cyclopenta[1,2-c]pyrazol-1-yl)acetamide] | > 500 | 9.37
COc1ccc(-c2ccc3c(=O)n(-c4ccc(Cl)c5c(NS(C)(=O)=O)nn(C)c45)c([C@H](Cc4cc(F)cc(F)c4)NC(=O)Cn4nc(C(F)F)c5c4C(F)(F)[C@@H]4C[C@H]54)nc3c2)nc1 (atropisomer, axis not shown; (P)) [Example 45, N—((S)-1-((3P)-3-(4-chloro-1-methyl-3-(methylsulfonamido)-1H-indazol-7-yl)-7-(5-methoxypyridin-2-yl)-4-oxo-3,4-dihydroquinazolin-2-yl)-2-(3,5-difluorophenyl)ethyl)-2-((3bS,4aR)-3-(difluoromethyl)-5,5-difluoro-3b,4,4a,5-tetrahydro-1H-cyclopropa[3,4]cyclopenta[1,2-c]pyrazol-1-yl)acetamide] | > 500 | 10.00
CCc1cc(-c2ccc3c(=O)n(-c4ccc(Cl)c5c(NS(C)(=O)=O)nn(C)c45)c([C@H](Cc4cc(F)cc(F)c4)NC(=O)Cn4nc(C(F)F)c5c4C(F)(F)[C@@H]4C[C@H]54)nc3c2)nc(CC)n1 (atropisomer, axis not shown; (P)) [Example 68, N—((S)-1-((3P)-3-(4-chloro-1-methyl-3-(methylsulfonamido)-1H-indazol-7-yl)-7-(2,6-diethylpyrimidin-4-yl)-4-oxo-3,4-dihydroquinazolin-2-yl)-2-(3,5-difluorophenyl)ethyl)-2-((3bS,4aR)-3-(difluoromethyl)-5,5-difluoro-3b,4,4a,5-tetrahydro-1H-cyclopropa[3,4]cyclopenta[1,2-c]pyrazol-1-yl)acetamide] | > 500 | 9.74
Cc1cc(-c2ccc3c(=O)n(-c4ccc(Cl)c5c(NS(=O)(=O)C6CC6)nn(CC(F)F)c45)c([C@H](Cc4cc(F)cc(F)c4)NC(=O)Cn4nc(C(F)F)c5c4C(F)(F)[C@@H]4C[C@H]54)nc3c2)nc(C)n1 (atropisomer, axis not shown; (P)) [Example 85, N—((S)-1-((3P)-3-(4-chloro-3-(cyclopropanesulfonamido)-1-(2,2-difluoroethyl)-1H-indazol-7-yl)-7-(2,6-dimethylpyrimidin-4-yl)-4-oxo-3,4-dihydroquinazolin-2-yl)-2-(3,5-difluorophenyl)ethyl)-2-((3bS,4aR)-3-(difluoromethyl)-5,5-difluoro-3b,4,4a,5-tetrahydro-1H-cyclopropa[3,4]cyclopenta[1,2-c]pyrazol-1-yl)acetamide] | > 500 | 10.06
Cn1nc(NS(C)(=O)=O)c2c(Cl)ccc(-n3c([C@H](Cc4cc(F)cc(F)c4)NC(=O)Cn4nc(C(F)F)c5c4C(F)(F)[C@@H]4C[C@H]54)nc4cc(-c5cccnn5)ccc4c3=O)c21 (atropisomer, axis not shown; (P)) [Example 49, N—((S)-1-((3P)-3-(4-chloro-1-methyl-3-(methylsulfonamido)-1H-indazol-7-yl)-4-oxo-7-(pyridazin-3-yl)-3,4-dihydroquinazolin-2-yl)-2-(3,5-difluorophenyl)ethyl)-2-((3bS,4aR)-3-(difluoromethyl)-5,5-difluoro-3b,4,4a,5-tetrahydro-1H-cyclopropa[3,4]cyclopenta[1,2-c]pyrazol-1-yl)acetamide] | > 500 | 10.15
CS(=O)(=O)Nc1nn(CC(F)F)c2c(-n3c([C@H](Cc4cc(F)cc(F)c4)NC(=O)Cn4nc(C(F)F)c5c4C(F)(F)[C@@H]4C[C@H]54)nc4cc(-c5nccc(C(F)F)n5)ccc4c3=O)ccc(Cl)c12 (atropisomer, axis not shown) [Example 132] | > 500 | 10.22
CC(C)c1nccc(-c2ccc3c(=O)n(-c4ccc(Cl)c5c(NS(C)(=O)=O)nn(C)c45)c([C@H](Cc4cc(F)cc(F)c4)NC(=O)Cn4nc(C(F)F)c5c4C(F)(F)[C@@H]4C[C@H]54)nc3c2)n1 (atropisomer, axis not shown; (P)) [Example 67, N—((S)-1-((3P)-3-(4-chloro-1-methyl-3-(methylsulfonamido)-1H-indazol-7-yl)-7-(2-isopropylpyrimidin-4-yl)-4-oxo-3,4-dihydroquinazolin-2-yl)-2-(3,5-difluorophenyl)ethyl)-2-((3bS,4aR)-3-(difluoromethyl)-5,5-difluoro-3b,4,4a,5-tetrahydro-1H-cyclopropa[3,4]cyclopenta[1,2-c]pyrazol-1-yl)acetamide] | > 500 | 9.82
Cc1nccc(-c2ccc3c(=O)n(-c4ccc(Cl)c5c(NS(C)(=O)=O)nn(C)c45)c([C@H](Cc4cc(F)cc(F)c4)NC(=O)Cn4nc(C(F)F)c5c4C(F)(F)[C@@H]4C[C@H]54)nc3c2)n1 [Example 10, N—((S)-1-((3P)-3-(4-chloro-1-methyl-3-(methylsulfonamido)-1H-indazol-7-yl)-7-(2-methylpyrimidin-4-yl)-4-oxo-3,4-dihydroquinazolin-2-yl)-2-(3,5-difluorophenyl)ethyl)-2-((3bS,4aR)-3-(difluoromethyl)-5,5-difluoro-3b,4,4a,5-tetrahydro-1H-cyclopropa[3,4]cyclopenta[1,2-c]pyrazol-1-yl)acetamide] | > 500 | 10.38
COc1ncc(-c2ccc3c(=O)n(-c4ccc(Cl)c5c(NS(=O)(=O)C6CC6)nn(CC(F)F)c45)c([C@H](Cc4cc(F)cc(F)c4)NC(=O)Cn4nc(C(F)F)c5c4C(F)(F)[C@@H]4C[C@H]54)nc3c2)cn1 (atropisomer, axis not shown) [Example 99] | > 500 | 10.05
